This note sets out measurements from patent US7781474B2, “Inhibitors of hepatitis C virus replication” (InterMune, Inc., priority 2006, dated 2010).

Structures can show the parent of a compound that is named as a salt. Some results are limits rather than exact numbers.

One may read the IC50 as the concentration that inhibits the measured activity by half.

In this assay the target is T1, NS3/NS4A-2 (Hepatitis C virus genotype 1a, UniProt P27958).
T1 construct: Recombinant E. coli or Baculovirus full-length NS3 was diluted to 3.33 μM with assay buffer; made in house; host or cells: E. coli or Baculovirus (insect cells)
T1 sequence (P27958 1027-1657): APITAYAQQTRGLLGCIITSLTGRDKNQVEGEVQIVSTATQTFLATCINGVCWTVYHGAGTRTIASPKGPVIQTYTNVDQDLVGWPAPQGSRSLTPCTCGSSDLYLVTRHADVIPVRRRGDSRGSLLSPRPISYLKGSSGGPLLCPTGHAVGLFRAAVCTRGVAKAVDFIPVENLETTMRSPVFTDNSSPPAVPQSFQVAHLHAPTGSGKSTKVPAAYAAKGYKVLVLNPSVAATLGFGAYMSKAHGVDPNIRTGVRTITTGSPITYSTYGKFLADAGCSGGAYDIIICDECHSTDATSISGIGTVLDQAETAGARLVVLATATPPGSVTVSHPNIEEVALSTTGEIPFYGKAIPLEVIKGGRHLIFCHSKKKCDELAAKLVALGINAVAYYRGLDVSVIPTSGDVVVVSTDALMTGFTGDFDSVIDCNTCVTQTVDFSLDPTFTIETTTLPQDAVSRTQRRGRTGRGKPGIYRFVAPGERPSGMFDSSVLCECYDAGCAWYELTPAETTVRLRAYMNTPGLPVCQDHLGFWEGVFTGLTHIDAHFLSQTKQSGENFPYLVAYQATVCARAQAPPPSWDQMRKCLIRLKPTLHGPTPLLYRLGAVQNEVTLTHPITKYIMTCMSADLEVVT
In words: NS3 inhibition assay (NS3-NS4 protease assay). The settings on record: recombinant full-length NS3 (E. coli or Baculovirus) complexed with NS4A-2; RETS1 substrate. It counts as biochemical, hepatitis C virus (HCV). The method, then:
NS3 Complex Formation with NS4A-2.
Recombinant E. coli or Baculovirus full-length NS3 was diluted to 3.33 μM with assay buffer and transferred material to an eppendorf tube and place in water bath in 4° C. refrigerator. The appropriate amount of NS4A-2 to 8.3 mM in assay buffer was added to equal the volume of NS3 in step 2.1.1 (conversion factor—3.8 mg/272 μL assay buffer). The material was transferred to an eppendorf tube and place in water bath in 4° C. refrigerator.
After equilibration to 4° C., equal volumes of NS3 and NS4A-2 solutions were combined in an eppendorf tube, mix gently with a manual pipettor, and incubate mixture for 15 minutes in the 4° C. water bath. Final concentrations in the mixture are 1.67 μM NS3, 4.15 mM NS4A-2 (2485-fold molar excess NS4A-2).
After 15 minutes at 4° C., the NS3/NS4A-2 eppendorf tube was removed and place it in a room temperature water bath for 10 minutes. NS3/NS4A-2 was alliquoted at appropriate volumes and store at −80° C. (E. coli NS3 run at 2 nM in assay, aliquot at 25 μL. BV NS3 run at 3 nM in assay, aliquot at 30 μL).
Sample compounds were dissolved to 10 mM in DMSO then diluted to 2.5 mM (1:4) in DMSO. Typically, compounds were added to an assay plate at 2.5 mM concentration, yielding upon dilution a starting concentration of 50 microM in the assay inhibition curve. Compounds were serial diluted in assay buffer to provide test solutions at lower concentrations.
The E. coli. NS3/NS4A-2 was diluted to 4 nM NS3 (1:417.5 of 1.67 μM stock−18 μL 1.67 μM stock+7497 μL assay buffer). The BV NS3/NS4A-2 was diluted to 6 nM NS3 (1:278.3 of 1.67 μM stock−24 μL 1.67 μM stock+6655 μL assay buffer). Using the manual multichannel pipettor, careful not to introduce bubbles into the plate, add 50 μL assay buffer to wells A01-H01 of a black Costar 96-well polypropylene storage plate.
Using the manual multichannel pipettor, careful not to introduce bubbles into the plate, add 50 μL of diluted NS3/NS4A-2 from step 2.2.6 to wells A02-H12 of plate in step 2.2.7. Using the manual multichannel pipettor, careful not to introduce bubbles into the plate, transfer 25 μL of the wells in drug dilution plate in step 2.2.5 to corresponding wells in assay plate in step 2.2.8. Change tips on multichannel pipettor for each row of compounds transferred. Using the manual multichannel pipettor, careful not to introduce bubbles into the plate, mix the wells from the assay plate in step 2.2.9 by aspirating and dispensing 35 μL of the 75 μL in each well five times. Change tips on multichannel pipettor for each row of wells mixed. Cover plate with a polystyrene plate lid and pre-incubate the plate from step 2.2.10 containing NS3 protease and sample compounds 10 minutes at room temperature. While plate from step 2.2.11 is pre-incubating, dilute RETS1 substrate in a 15 mL polypropylene centrifuge tube. Dilute RETS1 substrate to 8 μM (1:80.75 of 646 μM stock−65 μL 646 μM stock+5184 μL assay buffer).
After the plate in step is done pre-incubating, and using the manual multichannel, add 25 μL of substrate to all wells on the plate. Quickly mix the plate as in step 2.2.10, mixing 65 μL of the 100 μL in the wells.
Read the plate in kinetic mode on the Molecular Devices SpectraMax Gemini XS plate reader. Reader settings: Read time: 30 minutes, Interval: 36 seconds, Reads: 51, Excitation λ: 335 nm, Emission λ: 495 nm, cutoff: 475 nm, Automix: off, Calibrate: once, PMT: high, Reads/well: 6, Vmax pts: 21 or 28/51 depending on length of linearity of reaction
IC50s are determined using a four parameter curve fit equation, and converted to Ki's using the following Km's: Full-length E. coli NS3−2.03 μM Full-length BV NS3−1.74 μM
where Ki=IC50/(1+[S]/Km))
In the case of `C=C[C@@H]1C[C@]1(NC(=O)C1CN(C(=O)OC(C)(C)C)Cc2c[nH]nc21)C(=O)NS(=O)(=O)C1CC1` (mixture of isomers) [Compound 104, Tert-butyl 7-((1R,2S)-1-(cyclopropylsulfonylcarbamoyl)-2-vinylcyclopropylcarbamoyl)-6,7-dihydro-2H-pyrazolo[4,3-c]pyridine-5(4H)-carboxylate], the IC50 was in the range of 10 to 50 µM.

On to `C=C[C@@H]1C[C@]1(NC(=O)[C@@H]1C[C@@H](OC(=O)N2Cc3cccc(F)c3C2)CN1C(C)=O)C(=O)NS(=O)(=O)C1CC1` [Compound 90, (3R,5S)-1-acetyl-5-((1R,2S)-1-(cyclopropylsulfonylcarbamoyl)-2-vinylcyclopropylcarbamoyl)pyrrolidin-3-yl 4-fluoroisoindoline-2 carboxylate], for which the IC50 was less than 0.1 µM.

Consider `C=C[C@@H]1C[C@]1(NC(=O)[C@@H]1C[C@@H](OC(=O)N2Cc3cccc(F)c3C2)CN1C(=O)CNC(=O)OC(C)(C)C)C(=O)NS(=O)(=O)C1CC1` [Compound 91], for which the IC50 was 0.1 to 1 µM.

Consider `O=C(O)CNC(=O)C1CCCc2c[nH]nc21` (stereo not shown) [Compound 101], for which the 50% inhibitory concentration (IC50) lay within 10 to 50 µM.

Consider `O=C(CNC(=O)C1CCCc2c[nH]nc21)NS(=O)(=O)C1CC1` (stereo not shown) [Compound 102], for which the IC50 lay in the range of 1 to 10 µM.

Turning to `C=C[C@@H]1C[C@]1(NC(=O)C1CN(C(=O)Cc2ccccc2)Cc2c[nH]nc21)C(=O)NS(=O)(=O)C1CC1` (stereo partly drawn) [Compound 103, N-((1R,2S)-1-(cyclopropylsulfonylcarbamoyl)-2-vinylcyclopropyl)-5-(2-phenylacetyl)-4,5,6,7-tetrahydro-2H-pyrazolo[4,3-c]pyridine-7-carboxamide], the IC50 lay in the range of 1 to 10 µM.

Take `CCC[C@H](NC(=O)C1CN(C(=O)Cc2ccccc2)Cc2c[nH]nc21)C(=O)NS(=O)(=O)C1CC1` (stereo partly shown) [Compound 106]: the IC50 was in the range of 10 to 50 µM.

For `CCC[C@H](NC(=O)C1CNCc2c[nH]nc21)C(=O)NS(=O)(=O)C1CC1` (stereo partly shown) [Compound 107], the IC50 fell in the range of 10 to 50 µM.

`O=C(O)CNC(=O)C1CN(C(=O)Cc2ccccc2)Cc2c[nH]nc21` (stereo not shown) [Compound 108]: the IC50 lay in the range of 1 to 10 µM.

On to `O=C(CNC(=O)C1CNCc2c[nH]nc21)NS(=O)(=O)C1CC1` (stereo not shown) [Compound 109], for which the IC50 was 10 to 50 µM.

Turning to `O=C(O)C1CNCc2c[nH]nc21` (stereo not shown) [Compound 110], the IC50 was 1 to 10 µM.

As to `C=C[C@@H]1C[C@]1(NC(=O)C1CNCc2c[nH]nc21)C(=O)NS(=O)(=O)C1CC1` (stereo partly drawn) [Compound 111, N-((1R,2S)-1-(cyclopropylsulfonylcarbamoyl)-2-vinylcyclopropyl)-4,5,6,7-tetrahydro-2H-pyrazolo[4,3-c]pyridine-7-carboxamide hydrochloride], the 50% inhibitory concentration (IC50) was in the range of 10 to 50 µM.

As for `O=C(NC1(C(=O)NS(=O)(=O)C2CC2)CCC1)C1CNCc2c[nH]nc21` (stereo not shown) [Compound 112], the IC50 is 1 to 10 µM.
